Data reported in patent US7084136B2, “Drug composition antagonistic to both PGD2/TXA2 receptors” (Shionogi & Co., Ltd., priority 2000, dated 2006).
Marks after values point to notes of the source that are not given here.

Columns and labels:
[1] = test system: Eosinophil Number in Bronchoalveolar Lavage Fluid; test: Antigen-induced increase in the eosinophil number in bronchoalveolar lavage fluid; type: in vivo, guinea pig; conditions: for suppression of eosinophil infiltration: summary of Table 77 to Table 79, bronchoalveolar lavage fluid
Description: Antigen-Induced Increase in the Eosinophil Number in Bronchoalveolar Lavage Fluid.
Bronchoalveolar lavage was performed with 10 mL of saline, after the animals were sensitized and challenged with antigen. The number of total cells in the recovered fluid was stained with Türk and counted using hemocytometer. *: P<0.05, **:P<0.01 vs Vehicle(Dunnett's test), ^##: P<0.01 vs Vehicle(Student's t test). ( ): inhibition %.

[2] = target: T1, PGD2 receptor (Homo sapiens, UniProt Q13258); test: Binding activity to PGD2 receptor ([3H]PGD2, human platelet membrane fraction)
T1 construct: A suspension adjusted to contain the platelets at a final concentration of 5×10^8/ml was warmed at 37° C; endogenous in cells; host or cells: washed human platelets from a healthy volunteer
T1 sequence (Q13258 1-359): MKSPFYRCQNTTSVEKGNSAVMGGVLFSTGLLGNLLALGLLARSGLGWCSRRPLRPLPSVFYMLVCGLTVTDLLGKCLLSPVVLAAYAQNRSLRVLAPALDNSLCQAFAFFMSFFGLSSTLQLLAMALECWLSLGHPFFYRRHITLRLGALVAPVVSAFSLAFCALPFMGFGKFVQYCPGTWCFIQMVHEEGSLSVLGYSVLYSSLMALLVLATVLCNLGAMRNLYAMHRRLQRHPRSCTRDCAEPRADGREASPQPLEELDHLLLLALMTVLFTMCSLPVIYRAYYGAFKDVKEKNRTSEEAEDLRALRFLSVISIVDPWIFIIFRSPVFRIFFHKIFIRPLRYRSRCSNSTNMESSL
Description: Experiment 1 Binding Activity to PGD2 Receptor
(1) Preparation of Human Platelet Membrane Fraction
Blood was collected using a plastic syringe containing 3.8% sodium citrate from the vein of healthy volunteers (adult male and female), then put into a plastic test tube and mixed by slow-reversion. The sample was then centrifuged at 1800 rpm, for 10 min at room temperature, and the supernatant containing PRP (platelet-rich plasma) was collected. The PRP was re-centrifuged at 2300 rpm, for 22 min at room temperature to obtain platelets. The platelets were homogenized using a homogenizer (Ultra-Turrax) followed by centrifugation 3 times at 20,000 rpm, 10 min at 4° C. to obtain a platelet membrane fraction. After protein determination, the membrane fraction was adjusted to 2 mg/ml and preserved in a refrigerator at −80° C. until using for the binding test.
(2) Binding to PGD2 Receptor
To a binding-reaction solution (50 mM Tris/HCl, pH 7.4, 5 mM MgCl2) (0.2 ml) were added the human platelet membrane fraction (0.1 mg) and 5 nM [^3H]PGD2 (115 Ci/mmol), and the mixture was reacted at 4° C. for 90 min. After the reaction, the mixture was filtered through a glass fiber filter paper and washed several times with cooled physiological saline, then the radioactivity retained on the filter paper was measured. The specific-binding ratio was calculated by subtracting the non-specific binding ratio which is the radioactivity similarly measured in the presence of 10 μM PGD2 from the total binding. The inhibitory activity of each compound was expressed as the concentration required for 50% inhibition (IC50), which was determined by depicting a substitution curve by plotting the binding ratio (%) in the presence of each compound, where the binding ratio in the absence of a test compound is 100%.

[3] = test system: Male Hartley guinea pigs; test: Antigen-induced bronchial hyperresponsiveness (acetylcholine PD200, OVA-sensitized guinea pigs); type: in vivo, guinea pig; conditions: for inhibition of the induction of bronchial hyperresponsiveness: summary of Table 74 to Table 76, oral, guinea pig
Description: Comparative Experiment 2 Antigen-Induced Bronchial Hyperresponsiveness
Male Hartley guinea pigs were actively sensitized to ovalbumin (OVA) by inhalation of aerosolized solution of 1% ovalbumin twice at a week interval. One week after the second sensitization, the animals were treated with antihistamine, diphenhydramine (10 mg/kg, i.p.), and then challenged with 1% OVA aerosol for 5 min. Twenty four hours later, acetylcholine at doses at 3.13, 6.25, 12.5, 25, 50 and 100 micro g/kg was sequentially injected into the animals which were anesthetized with pentobarbital (30 mg/kg, i.p.). The bronchoconstriction induced by each dose of acetylcholine was monitored by the modified method of Konzett-Rössler technique, and made a dose-response curve of acetylcholine. Using the dose-response curve, the dose required for 200% increase in bronchoconstriction from baseline (PD200) was calculated in each animal and used as an indication of bronchial responsiveness. Compounds were orally administered 1 hour before antigen challenge. **: P<0.01 vs Vehicle(Dunnett's test), ^##: P<0.01 vs Vehicle(Student's t test).

[4] = target: T1, PGD2 receptor; test: Antagonistic activity against PGD2 receptor using human platelet (inhibition of PGD2-induced cAMP increase); type: cell-based
Description: Experiment 3 Evaluation of Antagonistic Activity Against PGD2 Receptor
Receptor Using Human Platelet
Peripheral blood was collected from a healthy volunteer using a syringe in which 1/9 volume of a citric acid/dextrose solution was previously added. The sample was subjected to centrifugation at 1200 rpm for 10 min to obtain the supernatant (PRP: platelet rich plasma). The resultant PRP was washed 3 times with a washing buffer and the number of platelets was counted with a micro cell counter. A suspension adjusted to contain the platelets at a final concentration of 5×10^8/ml was warmed at 37° C., then subjected to the pre-treatment with 3-isobutyl-1-methylxanthine (0.5 mM) for 5 min. To the suspension was added a test compound diluted at various concentration, and 10 minutes later, 0.1 μM PGD2 was added to induce the reaction 2 minutes later, hydrochloric acid was added to terminate the reaction. The platelet was destroyed with an ultrasonic homogenizer. After centrifugation, the cAMP in the supernatant was determined by radioimmunoassay. PGD2 receptor antagonism of a drug was evaluated as follows: the inhibition rate regarding cAMP increased by the addition of PGD2 was determined at each concentration, and the concentration of the drug required for 50% inhibition (IC50) was calculated.

[5] = 10 mg/kg, bronchoalveolar lavage fluid after antigen challenge
[6] = comparative experiment in accordance with Experiment 1, read-out: Experiment 1 Antagonistic activity against PGD2 receptor IC50
[7] = comparative experiment in accordance with Experiment 3, read-out: Experiment 3 Antagonistic activity against PGD2 receptor IC50

IC50 [2, 6] | IC50 [4, 7] | IC50 ([2]; human platelet membrane fraction, read-out: Binding activity to PGD2 receptor in human platelet membrane fraction IC50) | IC50 ([4]; human platelet, 0.1 μM PGD2, read-out: Inhibitory activity for the increase of cAMP caused by PGD2 in human platelet IC50) | Compound | Total cells [1, 5] | inhibition at 10 mg/kg ([1]; Cavia porcellus, Eosinophil, 10 mg/kg, bronchoalveolar lavage fluid after antigen challenge, read-out: inhibition % (total cells in bronchoalveolar lavage fluid) (converted)) | suppression of eosinophil infiltration [1] | Log PD200 ([3]; 1 mg/kg orally 1 hour before antigen challenge, OVA-sensitized guinea pigs, acetylcholine) | Log PD200 ([3]; 10 mg/kg orally 1 hour before antigen challenge, OVA-sensitized guinea pigs, acetylcholine) | inhibition of the induction of bronchial hyperresponsiveness [3] | inhibition % (total cells in bronchoalveolar lavage fluid) [1, 5] | Log PD200 ([3]; 10 mg/kg orally 1 hour before antigen challenge, acetylcholine dose for 200% increase in bronchoconstriction, 24 h after OVA challenge)
> 10000 nM | > 10000 nM |  |  | O=C(O)CCC/C=C\C[C@H]1[C@@H]2CC[C@@H](C2)[C@@H]1NS(=O)(=O)c1ccccc1 [A, reference compound] | 15.20 ± 2.20 × 10^6 cells/animal | -12% | did not show any inhibitory actions | 1.29 ± 0.04 | 1.61 ± 0.09** | suppressed |  | 
1.8 nM | 63 nM | 1.8 nM | 63 nM | Cc1cccn1S(=O)(=O)c1ccc(C(=O)N[C@@H]2[C@@H](CCCC/C=C/C(=O)O)C[C@H]3C[C@@H]2C3(C)C)s1 [II-7I-55a] | 12.26 ± 1.54 × 10^6 cells/animal |  | significantly suppressed |  |  | suppressed | 80% | 1.442 ± 0.055**
